Literature values in patent US20110184379A1, “METHOD AND SYSTEM TO DEFINE PATIENT SPECIFIC THERAPEUTIC REGIMENS BY MEANS OF PHARMACOKINETIC AND PHARMACODYNAMIC TOOLS” (MEDTRONIC, INC., priority 2008, published 2011).
Read-outs that look alike come from different tables or passages of the source.

How the values were obtained:
[1] = test system: HCV
[2] = test system: HCV; remark: listed apart in the source
[3] = test system: HCV; remark: listed apart in the source
[4] = preliminary review of blinded data, four completed cohorts
[5] = test system: chronic hepatitis C virus (HCV) genotype 1; conditions: for SVR at 24 weeks after the end of treatment (SVR 24): 28-week Boceprevir arm
[6] = test system: HCV genotype-1; conditions: 14-day course
[7] = test system: HCV genotype 1; conditions: 5 days of dosing
[8] = test system: Hepatitis C virus replicon
[9] = test system: genotype 1 HCV polymerases
[10] = test system: HCV; remark: listed apart in the source
[11] = test system: HCV; conditions: for viral load reduction: oral

For interferon-α, the “therapeutic effectiveness of the combination” value ([1]; ribavirin combined with interferon-α, genotype 1 population) is listed as 29%, the “delay before HCV RNA decline” value ([2]; IFN or IFN plus ribavirin) is listed as 7 to 10 h and the “fall of HCV RNA in the first phase (1-2 days), on average” value ([2]; genotype 1 infected patients) is listed as 1-2 logs.

For CC(C)C(=O)OC[C@H]1O[C@@H](n2ccc(N)nc2=O)[C@](C)(F)[C@@H]1OC(=O)C(C)C [R71278], the “decrease in HCV RNA (viral load)” value ([3]; 1,500 mg twice-daily arm) is given as greater than 99%, the “antiviral activity across all dosing arms” value ([3]; in vivo) is given as “dose-dependent antiviral activity” and the safety and tolerability ([3]; in vivo) is given as “generally safe and well-tolerated with no serious adverse events”.

In the case of CC(C)(C)OC(=O)N[C@H]1CCCCC/C=C\[C@@H]2C[C@@]2(C(=O)NS(=O)(=O)C2CC2)NC(=O)[C@@H]2C[C@@H](OC(=O)N3Cc4cccc(F)c4C3)CN2C1=O [ITMN-191], the safety and tolerability (preliminary safety data, doses intended for Phase 1b) is given as “well tolerated and safe”, the serious adverse events (single ascending dose, healthy subjects) is given as “no serious adverse events were reported” and the safety and tolerability [4] is given as “safe and well-tolerated”.

In the case of CC(C)(C)NC(=O)N[C@H](C(=O)N1C[C@H]2[C@@H]([C@H]1C(=O)NC(CC1CCC1)C(=O)C(N)=O)C2(C)C)C(C)(C)C (some centres unmarked) [SCH503034], the “SVR at 24 weeks after the end of treatment (SVR 24)” value ([5]; lead-in) is given as 56%, the “SVR at 24 weeks after the end of treatment (SVR 24)” value ([5]; no lead-in) is given as 55% and the “SVR rate at 12 weeks after the end of treatment (SVR 12)” value ([5]; 48-week regimen, 4 weeks PEGINTRON + REBETOL lead-in before Boceprevir 800 mg TID, ITT) is given as 74%. The “SVR 12” value ([5]; 48 weeks Boceprevir + PEGIntron + REBETOL from the beginning, no P/R lead-in) was 66%, the “SVR (ITT) in patients with rapid virologic response (RVR)” value ([5]; lead-in, 28-week regimen) was 82% and the “SVR (ITT) in patients with rapid virologic response (RVR)” value ([5]; lead-in, 48 week regimen) was 92%. The “maximum HCV RNA reduction” value ([6]; 400 mg group) was “more than 2 logs” and the safety and tolerability [6] was “safe and well-tolerated with no serious adverse events”.

In the case of COc1ccc2c(O[C@@H]3C[C@H]4C(=O)N[C@]5(C(=O)NS(=O)(=O)C6CC6)C[C@H]5/C=C\CCCCN(C)C(=O)[C@@H]4C3)cc(-c3nc(C(C)C)cs3)nc2c1C [TMC435350], the tolerability [7] is listed as “well tolerated”, the antiviral activity ([7]; genotype 1 infected individuals) is listed as “strong and rapid antiviral activity” and the appearance of drug-resistance ([8]; combination with interferon) is listed as “suppress the appearance of drug-resistance”. For the same compound, the RNA reduction ([8]; combination with interferon, replicon model) was greater than 4 logs and the “effect on Hepatitis C virus replication” value ([8]; replicon experiments, via protease inhibition) was “reduce the amount of Hepatitis C virus replication”.

In the case of NC(=O)c1ncn([C@@H]2O[C@H](CO)[C@@H](O)[C@H]2O)n1 [ribavirin, 1-β-D-ribofuranosyl-1H-1,2,4-triazole-3-carboxamide], the efficacy ([1]; monotherapy) is given as “negligible efficacy”.

For COC[C@H]1C[C@@](Cn2cccn2)(C(=O)O)N(C(=O)c2ccc(C(C)(C)C)c(OC)c2)[C@H]1c1nccs1 [GSK625433], the “inhibition of genotype 1 HCV polymerases” value [9] is given as “highly potent and selective inhibitor” and the “interaction with interferon in vitro” value [9] is given as “synergistic”.

In the case of [N-]=[N+]=N[C@]1(CO)O[C@@H](n2ccc(N)nc2=O)[C@H](O)[C@@H]1O [R1626, 4′-azidocytidine], the “End-of-Treatment Response” value ([10]; 4 weeks R1626 + Peginterferon Alfa-2a (40 kd) + Ribavirin, then 44 weeks Peginterferon Alfa-2a + Ribavirin) is given as 84%, the barrier to resistance ([10]; in vivo) is given as “high barrier to resistance” and the viral load reduction ([11]; 100 mg dose (so in the source)) is given as 1.2 log 10. For the same compound, the viral load reduction ([11]; 300 mg dose (so in the source)) was 2.6 log 10, the viral load reduction ([11]; 4500 mg dose) was 3.7 log 10 and the viral resistance ([11]; human, in vivo) was “No viral resistance was found”. For the same compound, the tolerability ([11]; increasing adverse events at the highest dose (4500 mg)) was “generally well-tolerated”.
